Reference: patent US9861616B2, “Methods for treating respiratory diseases and formulations therefor” (priority 2013, dated 2018)
pIC50: −log10 of the molar value.

Columns and labels:
P. aeruginosa (PA) = experiment: MIC by microdilution, 36 clinical and laboratory strains with known efflux phenotype; type: cell-based
Procedure: (§1) MICs of 36 clinical and laboratory strains of PA with known efflux phenotype are measured by microdilution in cation-adjusted Muller-Hinton broth (CA-MHB) or in RPMI medium (commonly used in eukaryotic cell culture). Phe-Arg-β-naphthylamide (PaβN, 50 mg/L) and EGTA 5 mM are used to inhibit efflux pumps and alter OM integrity, respectively. P. aeruginosa strain ATCC PAO1 is used as reference. PA12 is a clinical strain overexpressing the 4 main efflux systems (MexAB, MexCD, MexEF, MexXY), PA403 is a laboratory strain deleted in the genes coding for the 4 efflux systems. A series of reference strains or of clinical isolates for which the expression of genes coding for efflux pumps is known is also used for MICs determinations. MICs are measured by microdilution in MH broth or in RPMI medium (used for eukaryotic cells culture) supplemented with 10% of fetal calf serum, or in MH broth supplemented by increasing amounts of serum. EGTA (5 mM) was used as a chelating agent (disrupting outer membrane integrity) and PaβN (50 mg/L) as an unspecific efflux inhibitor.

P. aeruginosa PA12 = experiment: MIC by microdilution with PaβN or EGTA, clinical isolate overexpressing efflux pumps; type: cell-based; details: Pseudomonas aeruginosa
Procedure: as §1

IL-8 (CXCL8) release = experiment: LPS-induced IL-8 (CXCL8) release in PMA-differentiated U937 cells (ELISA); type: cell-based, human
Procedure: Effects of macrolides on lipopolysaccharide (LPS)-induced CXCL8 release in PMA-differentiated U937 cells. […] LPS-induced CXCL8 release was evaluated by ELISA. Values represent means of three experiments±SEM. ^##p<0.01 (vs. non-treatment control), *p<0.05, **p<0.01 (vs. treatment with LPS only).
(§2) The human monocytic cell line U937 was obtained from the American Type Culture Collection (ATCC, Rockville, Md.). PBMCs from COPD patients were obtained from Brompton hospital and separated by AccuSPIN (Sigma-Aldrich). Cells were cultured in complete growth medium (RPMI 1640) (Sigma-Aldrich) supplemented with 10% fetal bovine serum (FBS) and 1% L-glutamine at 37° C. in a humidified atmosphere with 5% CO2. U937 cells were differentiated into adherent macrophage-like morphology by exposure to PMA (50 ng/mL) for 48 hrs in complete growth medium. Cell viability was assessed microscopically by trypan blue staining. Cell toxicity was determined by MTT assay as needed. This study was approved by the ethics committee of the Royal Brompton Hospitals, and all subjects gave written informed consent.
TNFα and IL-8 concentrations in the supernatant of cell cultures were determined by sandwich ELISA according to the manufacturer's instructions (R&D Systems Europe, Abingdon, UK).
(§3) The results were expressed as the mean±SEM. Comparisons of data in two groups were performed using the Student's t test or the Wilcoxon signed rank test. Multiple comparisons were made by one-way ANOVA with post hoc test (Dunnett's) as appropriate. The difference was considered significant at p<0.05. IC50 values (50% inhibitory concentration) for macrolides for production of cytokines or MMP9 were calculated using Prism 4.0 (GraphPad Software Inc., San Diego, Calif.).

MMP9 activity = experiment: PMA-induced MMP9 activation in U937 cells (gelatin zymography); type: cell-based, human
Procedure: Effects of macrolides on phorbol 12-myristate 13-acetate (PMA)-induced MMP9 activation in U937 cells. […] After 48 h supernatants were collected for zymography. MMP9 enzyme activity was measured by gelatin zymography. Data are expressed relative to standard.
as §2
MMP9 enzyme activity was measured by gelatin zymography. Cell culture supernatants were diluted with equal amount of Laemli sample buffer (Bio-Rad, Hertfordshire, UK) and loaded on a Novex® 10% Zymogram (Gelatin) gel (Invitrogen Ltd, Paisley, UK). After electrophoresis, gels were incubated and rinsed with Novex® zymogram renaturing buffer (Invitrogen) for 30 min at room temperature. The gels were then rinsed in Novex® zymogram developing buffer (Invitrogen) for 30 min at room temperature prior to overnight incubation in the developing buffer at 37° C. After incubation, the gels were stained using a Colloidal Blue Staining Kit (Invitrogen) to visualize the zymogen bands.
as §3

CC[C@H]1OC(=O)[C@H](C)[C@@H](O[C@H]2C[C@@](C)(OC)[C@@H](O)[C@H](C)O2)[C@H](C)[C@@H](O[C@@H]2O[C@H](C)C[C@H](N(C)C)[C@H]2O)[C@](C)(OC)C[C@@H](C)C(=O)[C@H](C)[C@@H](O)[C@]1(C)O [CLR, clarithromycin]
64 µg/mL: MIC (P. aeruginosa (PA); strain 16, efflux AB + XY+, RPMI) | MIC (P. aeruginosa (PA); strain 21, efflux AB+, RPMI) | MIC (P. aeruginosa (PA); strain 41, efflux CD+, RPMI) | MIC (P. aeruginosa (PA); strain 48, efflux CD + EF + XY+, RPMI) | MIC (P. aeruginosa (PA); strain 68, efflux AB + XY+, RPMI) | MIC (P. aeruginosa (PA); strain 133, efflux EF + XY+, RPMI) | MIC (P. aeruginosa (PA); strain 207, efflux AB + EF + XY+, RPMI) | MIC (P. aeruginosa (PA); strain 266B, efflux AB + CD+, RPMI) | MIC (P. aeruginosa (PA); strain 333A, efflux AB + EF+, RPMI) | MIC (P. aeruginosa (PA); strain 335, efflux AB + EF+, RPMI) | MIC (P. aeruginosa (PA); strain 396, ompH−, MHB)
3.30: pIC50 (IL-8 (CXCL8) release; PMA-differentiated U937 cells, read-out: IC50, LPS-induced IL-8 (CXCL8) release)
128 µg/mL: MIC (P. aeruginosa (PA); strain 2, efflux CD+, RPMI) | MIC (P. aeruginosa (PA); strain 434, efflux AB + CD + XY+, RPMI)
10 fold: inhibitory effect on MMP9 activity, lower than CEM-101 (MMP9 activity)
3.93: pIC50 (MMP9 activity; Homo sapiens, U-937, read-out: IC50, PMA-induced MMP9 activation)
4 µg/mL: MIC (P. aeruginosa (PA); strain 398, efflux CD−, RPMI) | MIC (P. aeruginosa (PA); strain 399, efflux AB − EF−, RPMI) | MIC (P. aeruginosa (PA); strain 400, efflux XY−, RPMI) | MIC (P. aeruginosa (PA); strain 403, efflux AB − CD − EF − XY−, RPMI) | MIC (P. aeruginosa (PA); strain 405, efflux AB − CD − EF − XY−, RPMI)
512 µg/mL: MIC (P. aeruginosa (PA); strain 1, efflux AB+, MHB) | MIC (P. aeruginosa (PA); strain 2, efflux CD+, MHB) | MIC (P. aeruginosa (PA); strain 4, efflux XY+, MHB) | MIC (P. aeruginosa (PA); strain 11, efflux AB + CD+, MHB) | MIC (P. aeruginosa (PA); strain 12, efflux AB + CD + EF + XY+, MHB) | MIC (P. aeruginosa (PA); strain 16, efflux AB + XY+, MHB) | MIC (P. aeruginosa (PA); strain 21, efflux AB+, MHB) | MIC (P. aeruginosa (PA); strain 22, efflux XY+, MHB) | MIC (P. aeruginosa (PA); strain 41, efflux CD+, MHB) | MIC (P. aeruginosa (PA); strain 48, efflux CD + EF + XY+, MHB) | MIC (P. aeruginosa (PA); strain 49, efflux CD + EF + XY+, MHB) | MIC (P. aeruginosa (PA); strain 63, efflux AB + EF + XY+, MHB) | MIC (P. aeruginosa (PA); strain 68, efflux AB + XY+, MHB) | MIC (P. aeruginosa (PA); strain 133, efflux EF + XY+, MHB) | MIC (P. aeruginosa (PA); strain 156, efflux EF + XY+, MHB) | MIC (P. aeruginosa (PA); strain 168B, efflux CD + XY+, MHB) | MIC (P. aeruginosa (PA); strain 207, efflux AB + EF + XY+, MHB) | MIC (P. aeruginosa (PA); strain 266B, efflux AB + CD+, MHB) | MIC (P. aeruginosa (PA); strain 333A, efflux AB + EF+, MHB) | MIC (P. aeruginosa (PA); strain 335, efflux AB + EF+, MHB) | MIC (P. aeruginosa (PA); strain 394, efflux XY−, MHB) | MIC (P. aeruginosa (PA); strain 434, efflux AB + CD + XY+, MHB) | MIC (P. aeruginosa (PA); strain PAO1, REFERENCE, MHB) | MIC (P. aeruginosa PA12; PA12, PA12, CA-MHB, control conditions (CT))
modest effects: effect on IL-8 production (IL-8 (CXCL8) release; at a higher concentration (333 μM))
8 µg/mL: MIC (P. aeruginosa (PA); strain 401, ompH−, MHB) | MIC (P. aeruginosa (PA); strain 405, efflux AB − CD − EF − XY−, MHB)
32 µg/mL: MIC (P. aeruginosa (PA); strain 1, efflux AB+, RPMI) | MIC (P. aeruginosa (PA); strain 4, efflux XY+, RPMI) | MIC (P. aeruginosa (PA); strain 22, efflux XY+, RPMI) | MIC (P. aeruginosa (PA); strain 49, efflux CD + EF + XY+, RPMI) | MIC (P. aeruginosa (PA); strain 63, efflux AB + EF + XY+, RPMI) | MIC (P. aeruginosa (PA); strain 156, efflux EF + XY+, RPMI) | MIC (P. aeruginosa (PA); strain 394, efflux XY−, RPMI) | MIC (P. aeruginosa (PA); strain 395, efflux HI−, RPMI) | MIC (P. aeruginosa (PA); strain 398, efflux CD−, MHB) | MIC (P. aeruginosa (PA); strain PAO1, REFERENCE, RPMI)
2 µg/mL: MIC (P. aeruginosa (PA); strain 397, efflux AB−, RPMI) | MIC (P. aeruginosa (PA); strain 401, ompH−, RPMI) | MIC (P. aeruginosa PA12; PA12, PA12, RPMI, EGTA 5 mM)
16 µg/mL: MIC (P. aeruginosa (PA); strain 3, efflux EF+, RPMI) | MIC (P. aeruginosa (PA); strain 11, efflux AB + CD+, RPMI) | MIC (P. aeruginosa (PA); strain 12, efflux AB + CD + EF + XY+, RPMI) | MIC (P. aeruginosa (PA); strain 40, efflux EF+, RPMI) | MIC (P. aeruginosa (PA); strain 391, efflux EF−, RPMI) | MIC (P. aeruginosa (PA); strain 392, efflux CD−, RPMI) | MIC (P. aeruginosa (PA); strain 396, ompH−, RPMI) | MIC (P. aeruginosa (PA); strain 397, efflux AB−, MHB) | MIC (P. aeruginosa (PA); strain 399, efflux AB − EF−, MHB) | MIC (P. aeruginosa (PA); strain 400, efflux XY−, MHB) | MIC (P. aeruginosa (PA); strain 403, efflux AB − CD − EF − XY−, MHB) | MIC (P. aeruginosa PA12; PA12, PA12, CA-MHB, PaβN 50 mg/L) | MIC (P. aeruginosa PA12; PA12, PA12, RPMI, PaβN 50 mg/L) | MIC (P. aeruginosa PA12; PA12, PA12, RPMI, control conditions (CT))
